Like-named read-outs stand apart in the source and are kept apart here.

In one assay the target is T1, ALK (Homo sapiens, UniProt Q9UM73).
T1 construct: host or cells: baculovirus expression system
The experiment in a line: ALK Kinase Assay (ELISA/TRF, PLC-γ substrate). Format: biochemical. The settings on record: read-out: ALK Potency. Summed up: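 Time-resolved fluorescence ELISA using Eu-N1 PT66 antibody to detect phosphorylated PLC-γ (coated at 10 μg/mL). Enzyme at 30 ng/ml ALK; 15 min incubation, 37° C.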

For another assay, the target named is T2, JAK2 (Homo sapiens, UniProt O60674).
T2 construct: host or cells: baculovirus expression system
T2 sequence (O60674 whole entry): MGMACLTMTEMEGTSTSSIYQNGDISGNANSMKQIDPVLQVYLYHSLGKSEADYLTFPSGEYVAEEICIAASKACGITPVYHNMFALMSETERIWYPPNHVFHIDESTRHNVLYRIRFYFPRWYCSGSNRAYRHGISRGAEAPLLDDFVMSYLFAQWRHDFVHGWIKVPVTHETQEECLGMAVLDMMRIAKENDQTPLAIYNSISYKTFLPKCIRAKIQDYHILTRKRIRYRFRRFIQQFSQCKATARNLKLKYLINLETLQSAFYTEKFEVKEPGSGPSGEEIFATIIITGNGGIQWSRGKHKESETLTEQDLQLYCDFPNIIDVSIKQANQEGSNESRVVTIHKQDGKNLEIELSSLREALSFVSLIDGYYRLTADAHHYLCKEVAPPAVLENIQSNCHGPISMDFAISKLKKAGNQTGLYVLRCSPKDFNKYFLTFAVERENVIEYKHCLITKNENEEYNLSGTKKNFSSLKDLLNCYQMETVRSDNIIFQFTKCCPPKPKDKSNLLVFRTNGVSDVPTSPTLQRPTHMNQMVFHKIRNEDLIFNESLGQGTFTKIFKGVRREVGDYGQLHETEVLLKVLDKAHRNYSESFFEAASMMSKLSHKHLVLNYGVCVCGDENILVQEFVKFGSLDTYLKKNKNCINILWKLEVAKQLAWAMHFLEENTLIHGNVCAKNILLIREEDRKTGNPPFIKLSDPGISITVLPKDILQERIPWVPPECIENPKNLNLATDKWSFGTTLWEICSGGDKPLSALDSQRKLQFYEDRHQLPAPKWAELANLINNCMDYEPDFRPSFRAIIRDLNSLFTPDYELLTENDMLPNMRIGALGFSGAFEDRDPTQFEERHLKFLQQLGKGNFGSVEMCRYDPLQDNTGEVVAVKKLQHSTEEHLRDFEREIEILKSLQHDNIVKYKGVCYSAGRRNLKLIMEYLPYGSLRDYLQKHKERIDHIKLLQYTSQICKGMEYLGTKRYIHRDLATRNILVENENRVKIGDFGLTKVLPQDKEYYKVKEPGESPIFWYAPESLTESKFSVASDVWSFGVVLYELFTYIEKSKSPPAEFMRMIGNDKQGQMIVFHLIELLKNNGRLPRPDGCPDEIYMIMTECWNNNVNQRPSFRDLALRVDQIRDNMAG
Briefly: Recombinant Human JAK2 Kinase Assay (TRF). In kind it is biochemical. The following applies: read-out: JAK2 Potency. Summed up: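 Baculovirus-expressed JAK2 (15 ng/ml) phosphorylated a biotinylated 15-mer peptide captured on Neutravidin-coated plates, in 20 mM HEPES pH 7.2 with 0.2 μM ATP, 1 mM MnCl2, 0.1% BSA and 2.5% DMSO. Reaction ran 20 min at room temperature; phosphopeptide was detected by time-resolved fluorescence with Eu-N1-labelled PY100 antibody.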

The mark [1] stands for this setting: ALK kinase inhibition, 1 μM ATP.
Setting [2] is: JAK2 kinase inhibition, 0.2 μM ATP.

T1 sequence (Q9UM73 19-1620): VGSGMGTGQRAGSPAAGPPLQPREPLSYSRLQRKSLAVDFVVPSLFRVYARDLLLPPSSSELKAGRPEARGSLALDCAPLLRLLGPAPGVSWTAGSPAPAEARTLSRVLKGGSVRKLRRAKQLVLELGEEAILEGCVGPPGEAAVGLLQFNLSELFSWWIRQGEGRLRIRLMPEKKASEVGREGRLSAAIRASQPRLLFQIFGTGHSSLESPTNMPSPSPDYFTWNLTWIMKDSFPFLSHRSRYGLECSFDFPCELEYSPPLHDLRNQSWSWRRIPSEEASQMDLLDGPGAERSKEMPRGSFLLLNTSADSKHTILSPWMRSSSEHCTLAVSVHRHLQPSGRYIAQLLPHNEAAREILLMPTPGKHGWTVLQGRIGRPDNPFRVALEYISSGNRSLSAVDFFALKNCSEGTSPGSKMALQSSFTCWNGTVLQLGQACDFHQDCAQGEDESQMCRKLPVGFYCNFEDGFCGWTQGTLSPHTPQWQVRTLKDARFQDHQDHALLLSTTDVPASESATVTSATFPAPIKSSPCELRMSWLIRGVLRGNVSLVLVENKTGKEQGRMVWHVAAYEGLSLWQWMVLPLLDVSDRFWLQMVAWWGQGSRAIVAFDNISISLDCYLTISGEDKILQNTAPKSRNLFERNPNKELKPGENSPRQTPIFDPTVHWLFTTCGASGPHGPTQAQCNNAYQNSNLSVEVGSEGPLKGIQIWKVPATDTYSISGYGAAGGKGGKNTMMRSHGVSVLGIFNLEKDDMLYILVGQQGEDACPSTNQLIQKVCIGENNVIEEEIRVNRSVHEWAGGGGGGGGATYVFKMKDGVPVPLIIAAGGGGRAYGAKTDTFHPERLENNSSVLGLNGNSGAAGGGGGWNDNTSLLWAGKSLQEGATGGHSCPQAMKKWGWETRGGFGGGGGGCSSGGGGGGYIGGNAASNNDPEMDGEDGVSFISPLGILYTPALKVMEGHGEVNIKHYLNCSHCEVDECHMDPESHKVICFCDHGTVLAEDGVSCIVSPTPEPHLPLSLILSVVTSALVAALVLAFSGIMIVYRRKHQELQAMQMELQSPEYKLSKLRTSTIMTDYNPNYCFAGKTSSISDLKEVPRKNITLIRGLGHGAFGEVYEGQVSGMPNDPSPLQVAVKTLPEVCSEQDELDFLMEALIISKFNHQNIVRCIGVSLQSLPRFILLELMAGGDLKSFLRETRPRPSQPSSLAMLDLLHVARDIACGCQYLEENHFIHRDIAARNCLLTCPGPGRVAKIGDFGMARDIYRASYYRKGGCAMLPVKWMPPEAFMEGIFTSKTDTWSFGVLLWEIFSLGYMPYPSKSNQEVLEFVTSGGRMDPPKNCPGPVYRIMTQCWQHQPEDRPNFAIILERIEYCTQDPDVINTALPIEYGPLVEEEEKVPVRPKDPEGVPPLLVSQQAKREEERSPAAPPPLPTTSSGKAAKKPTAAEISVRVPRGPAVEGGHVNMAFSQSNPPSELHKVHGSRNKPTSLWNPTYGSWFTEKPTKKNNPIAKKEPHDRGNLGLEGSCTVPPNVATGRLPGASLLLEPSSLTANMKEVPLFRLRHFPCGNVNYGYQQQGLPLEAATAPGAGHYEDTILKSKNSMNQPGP

`c1ccc(-c2ccc3cnc(Nc4ccc5nc[nH]c5c4)nn23)nc1` [Example 1562, (3H-Benzimidazol-5-yl)-(7-pyridin-2-yl-pyrrolo[2,1-f][1,2,4]triazin-2-yl)-amine]: the IC50 at ALK (ALK Kinase Inhibition) was 1000 to 10000 nM; on JAK2 (JAK2 Kinase Inhibition) it was less than 100 nM.

As for `COc1cc2c(cc1Nc1ncc3ccc(-c4ccccc4N(C)S(C)(=O)=O)n3n1)CCC1(CCN(C)CC1)O2` [Example 996, N-(2-{2-[(7-methoxy-1′-methyl-3,4-dihydrospiro[chromene-2,4′-piperidin]-6-yl)amino]pyrrolo[2,1-f][1,2,4]triazin-7-yl}phenyl)-N-methylmethanesulfonamide], the IC50 at ALK (setting [1]) was less than 100 nM; on JAK2 (setting [2]) it was 1000 to 10000 nM.

Consider `CCS(=O)(=O)c1cccc(-c2ccc3cnc(Nc4ccc5nc(C(F)(F)F)[nH]c5c4)nn23)c1` [Example 1313, [7-(3-Ethanesulfonyl-phenyl)-pyrrolo[2,1-f][1,2,4]triazin-2-yl]-(2-trifluoromethyl-3H-benzimidazol-5-yl)-amine], for which the results for the IC50 at ALK (setting [1]) and on JAK2 (setting [2]) were greater than 10000 nM and less than 100 nM, respectively.

Take `COc1cc(N2CCC(N3CCN(C)CC3)CC2)ccc1Nc1ncc2ccc(-c3cccc(S(=O)(=O)NC(C)(C)C)c3)n2n1` [Example 534, N-tert-Butyl-3-(2-{2-methoxy-4-[4-(4-methyl-piperazin-1-yl)-piperidin-1-yl]-phenylamino}-pyrrolo[2,1-f][1,2,4]triazin-7-yl)-benzene sulfonamide]: the IC50 at ALK (setting [1]) and on JAK2 (setting [2]) was less than 100 nM in each case.

For the molecule `CCN(CC)C(=O)c1ccccc1-c1ccc2cnc(Nc3ccc(N4CCOCC4)cc3)nn12` [Example 408, N,N-Diethyl-2-[2-(4-morpholin-4-yl-phenylamino)-pyrrolo[2,1-f][1,2,4]triazin-7-yl]-benzamide], the IC50 was 100 to 1000 nM on ALK (ALK Kinase Inhibition) and less than 100 nM on JAK2 (JAK2 Kinase Inhibition).

Take `CN1CCN(c2ccc(Nc3ncc4ccc(C5CCCCC5)n4n3)cc2)CC1` [Example 123, (7-Cyclohexyl-pyrrolo[2,1-f][1,2,4]triazin-2-yl)-[4-(4-methyl-piperazin-1-yl)-phenyl]-amine]: the IC50 on ALK (ALK Kinase Inhibition) is 100 to 1000 nM; on JAK2 (JAK2 Kinase Inhibition), less than 100 nM.

Turning to `COc1ccccc1-c1ccc2cnc(Nc3ccc4c(c3)CN(CC(N)=O)C4)nn12` [Example 925, 2-{5-[7-(2-Methoxy-phenyl)-pyrrolo[2,1-f][1,2,4]triazin-2-ylamino]-1,3-dihydro-isoindol-2-yl}-acetamide], the IC50 was 100 to 1000 nM at ALK (setting [1]) and less than 100 nM on JAK2 (setting [2]).

On to `CN(C)CCNC(=O)c1ccc(-c2ccc3cnc(Nc4ccc(N5CCOCC5)cc4)nn23)cc1` [Example 52, N-(2-Dimethylamino-ethyl)-4-[2-(4-morpholin-4-yl-phenylamino)-pyrrolo[2,1-f][1,2,4]triazin-7-yl]-benzamide], for which the IC50 is 100 to 1000 nM on ALK (ALK Kinase Inhibition) and less than 100 nM at JAK2 (JAK2 Kinase Inhibition).

Consider `CC(=O)N1CCc2ccc(Nc3ncc4ccc(-c5cccc(S(=O)(=O)N6CC[C@H](O)C6)c5)n4n3)cc21` [Example 885, 1-(6-{7-[3-((S)-3-Hydroxy-pyrrolidine-1-sulfonyl)-phenyl]-pyrrolo[2,1-f][1,2,4]triazin-2-ylamino}-2,3-dihydro-indol-1-yl)-ethanone], for which the IC50 is 1000 to 10000 nM on ALK (setting [1]) and less than 100 nM at JAK2 (setting [2]).

As to `CN(c1cccc(-c2ccc3cnc(Nc4ccc(C5CCN(CC(N)=O)CC5)cc4)nn23)c1)S(C)(=O)=O` [Example 959, 2-[4-(4-{7-[3-(Methanesulfonyl-methyl-amino)-phenyl]-pyrrolo[2,1-f][1,2,4]triazin-2-ylamino}-phenyl)-piperidin-1-yl]-acetamide], the IC50 at ALK (setting [1]) was 100 to 1000 nM; on JAK2 (setting [2]), less than 100 nM.

For `COc1cc(C2CCN(C[C@@H](O)CO)CC2)c(F)cc1Nc1ncc2ccc(-c3ccccc3OC)n2n1` [Example 550, (R)-3-(4-{2-Fluoro-5-methoxy-4-[7-(2-methoxy-phenyl)-pyrrolo[2,1-f][1,2,4]triazin-2-ylamino]-phenyl}-piperidin-1-yl)-propane-1,2-diol], the IC50 on ALK (setting [1]) is less than 100 nM; on JAK2 (setting [2]), 100 to 1000 nM.

For `COc1cc(Nc2ncc3ccc(-c4cccc(Cl)c4)n3n2)cc(OC)c1` [Example 156, [7-(3-Chloro-phenyl)-pyrrolo[2,1-f][1,2,4]triazin-2-yl]-(3,5-dimethoxy-phenyl)-amine], the IC50 at ALK (ALK Kinase Inhibition) is greater than 10000 nM; on JAK2 (JAK2 Kinase Inhibition), less than 100 nM.

As for `COc1ccc(-c2ccc3cnc(Nc4ccc(OC)c(N5CCOCC5)c4)nn23)cn1` [Example 397, (4-Methoxy-3-morpholin-4-yl-phenyl)-[7-(6-methoxy-pyridin-3-yl)-pyrrolo[2,1-f][1,2,4]triazin-2-yl]-amine], the figures for the IC50 at ALK (ALK Kinase Inhibition) and at JAK2 (JAK2 Kinase Inhibition) were 100 to 1000 nM and less than 100 nM, respectively.

Take `CCN(CC)C1CCN(c2ccc(Nc3ncc4ccc(-c5ccccc5OC)n4n3)cc2)CC1` [Example 1138, [4-(4-Diethylamino-piperidin-1-yl)-phenyl]-[7-(2-methoxy-phenyl)-pyrrolo[2,1-f][1,2,4]triazin-2-yl]-amine]: the IC50 on ALK (setting [1]) and on JAK2 (setting [2]) was less than 100 nM each time.

`COc1ccc(Cl)cc1-c1ccc2cnc(Nc3ccc(C(=O)N4CCOCC4)cc3)nn12` [Example 315, {4-[7-(5-Chloro-2-methoxy-phenyl)-pyrrolo[2,1-f][1,2,4]triazin-2-ylamino]-phenyl}-morpholin-4-yl-methanone]: the IC50 at ALK (ALK Kinase Inhibition) was 100 to 1000 nM; on JAK2 (JAK2 Kinase Inhibition), less than 100 nM.

With `COc1cc([C@@H]2CCN(CC(N)=O)C[C@@H]2O)ccc1Nc1ncc2ccc(-c3ccccc3N(C)S(C)(=O)=O)n2n1` (racemic) [Example 842, (±)-2-[(3R,4S)-3-Hydroxy-4-(4-{7-[2-(methanesulfonyl-methyl-amino)-phenyl]-pyrrolo[2,1-f][1,2,4]triazin-2-ylamino}-3-methoxy-phenyl)-piperidin-1-yl]-acetamide], the IC50 at ALK (setting [1]) is less than 100 nM; on JAK2 (setting [2]), 100 to 1000 nM.

Regarding `COc1cc(C2CCN(CC(N)=O)CC2)ccc1Nc1ncc2c(Cl)cc(-c3ccccc3N(C)S(C)(=O)=O)n2n1` [Example 1554, 2-[4-(4-{5-Chloro-7-[2-(methanesulfonyl-methyl-amino)-phenyl]-pyrrolo[2,1-f][1,2,4]triazin-2-ylamino}-3-methoxy-phenyl)-piperidin-1-yl]-acetamide], the IC50 is less than 100 nM on ALK (ALK Kinase Inhibition) and 1000 to 10000 nM on JAK2 (JAK2 Kinase Inhibition).

For `COc1cc(-c2cccnc2)ccc1Nc1ncc2ccc(-c3ccccc3N(C)S(C)(=O)=O)n2n1` [Example 808, N-{2-[2-(2-Methoxy-4-pyridin-3-yl-phenylamino)-pyrrolo[2,1-f][1,2,4]triazin-7-yl]-phenyl}-N-methyl-methanesulfonamide], the figures for the IC50 at ALK (setting [1]) and at JAK2 (setting [2]) were 100 to 1000 nM and greater than 10000 nM, respectively.

As for `COc1cc2c(cc1Nc1ncc3ccc(-c4ccccc4N(C)S(C)(=O)=O)n3n1)CN(CC(N)=O)C2` [Example 869, 2-(5-{7-[2-(Methanesulfonyl-methyl-amino)-phenyl]-pyrrolo[2,1-f][1,2,4]triazin-2-ylamino}-6-methoxy-1,3-dihydro-isoindol-2-yl)-acetamide], the IC50 at ALK (setting [1]) is less than 100 nM; on JAK2 (setting [2]), 100 to 1000 nM.

On to `CN(c1ccccc1-c1ccc2cnc(Nc3ccc(N4CCOCC4)cc3)nn12)S(C)(=O)=O` [Example 626, N-Methyl-N-{2-[2-(4-morpholin-4-yl-phenylamino)pyrrolo[2,1-f][1,2,4]triazin-7-yl]phenyl}methanesulfonamide], for which the IC50 is 100 to 1000 nM on ALK (setting [1]) and less than 100 nM at JAK2 (setting [2]).

Turning to `COc1ncccc1-c1ccc2cnc(Nc3ccc4c(c3)CCN(CC(=O)N(C)C)CC4)nn12` [Example 1572], the IC50 at ALK (ALK Kinase Inhibition) is 100 to 1000 nM; at JAK2 (JAK2 Kinase Inhibition), less than 100 nM.

On to `c1cc(Sc2ccc3cnc(Nc4ccc(N5CCOCC5)cc4)nn23)ccn1` [Example 1116, (4-Morpholin-4-yl-phenyl)-[7-(pyridin-4-ylsulfanyl)-pyrrolo[2,1-f][1,2,4]triazin-2-yl]-amine], for which the IC50 on ALK (setting [1]) is 1000 to 10000 nM; on JAK2 (setting [2]), less than 100 nM.

Take `O=C(NCCN1CCOCC1)c1ccc(-c2ccc3cnc(Nc4ccc(N5CCOCC5)cc4)nn23)cc1` [Example 56, N-(2-Morpholin-4-yl-ethyl)-4-[2-(4-morpholin-4-yl-phenylamino)-pyrrolo[2,1-f][1,2,4]triazin-7-yl]-benzamide]: the results for the IC50 on ALK (ALK Kinase Inhibition) and at JAK2 (JAK2 Kinase Inhibition) were 1000 to 10000 nM and less than 100 nM, respectively.

`CS(=O)(=O)c1cccc(-c2ccc3cnc(Nc4ccc(C5CCNCC5O)cc4)nn23)c1` (stereo not drawn) [Example 1018, 4-{4-[7-(3-methanesulfonyl-phenyl)-pyrrolo[2,1-f][1,2,4]triazin-2-ylamino]-phenyl}-piperidine-3-ol]: the IC50 was 100 to 1000 nM at ALK (setting [1]) and less than 100 nM on JAK2 (setting [2]).

Consider `COc1ccccc1-c1ccc2cnc(Nc3ccc4c(cnn4CCN4CCOCC4)c3)nn12` [Example 1346, [7-(2-Methoxy-phenyl)-pyrrolo[2,1-f][1,2,4]triazin-2-yl]-[1-(2-morpholin-4-yl-ethyl)-1H-indazol-5-yl]-amine], for which the IC50 is 100 to 1000 nM on ALK (setting [1]) and less than 100 nM at JAK2 (setting [2]).

On to `COc1ccccc1Sc1ccc2cnc(Nc3ccc(N4CCN(C)CC4)cc3)nn12` [Example 98, [7-(2-Methoxy-phenylsulfanyl)-pyrrolo[2,1-f][1,2,4]triazin-2-yl]-[4-(4-methyl-piperazin-1-yl)-phenyl]-amine], for which the figures for the IC50 at ALK (ALK Kinase Inhibition) and on JAK2 (JAK2 Kinase Inhibition) were 100 to 1000 nM and less than 100 nM, respectively.

Regarding `COCCN1CCc2ccc(Nc3ncc4ccc(-c5ccccc5OC)n4n3)cc2CC1` [Example 30, [3-(2-Methoxy-ethyl)-2,3,4,5-tetrahydro-1H-benzo[d]azepin-7-yl]-[7-(2-methoxy-phenyl)-pyrrolo[2,1-f][1,2,4]triazin-2-yl]-amine], the IC50 on ALK (ALK Kinase Inhibition) and at JAK2 (JAK2 Kinase Inhibition) was less than 100 nM each time.

The values are drawn from patent US8471005B2 (Cephalon, Inc., priority 2008, dated 2013).
